PMC6429214, “Design, Synthesis and Biological Evaluation of Isoxazole-Based CK1 Inhibitors Modified with Chiral Pyrrolidine Scaffolds” (Molecules, 2019)

Columns and labels:
Experiment in all cases: 33PanQinase panel
Assay type in all cases: biochemical
[1] = target: T1, AKT1 aa106-480 (Homo sapiens, UniProt P31749); conditions: AKT1 aa106-480, 1 µM; read-out: Residual Activity (%)
T1 construct: purchased ProQinase
In short: (§1)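 The compound is tested at 1 µM against a panel of 320 wild-type protein kinases. A radiometric, activity-based 33P readout gives kinase activity, reported as residual percentage of the DMSO control; final DMSO is 1%.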

[2] = target: T2, AKT3 aa106-479 (Homo sapiens, UniProt Q9Y243); conditions: AKT3 aa106-479, 1 µM; read-out: Residual Activity (%)
T2 construct: purchased ProQinase
In short: as §1

[3] = target: T3, BTK (Homo sapiens, UniProt Q06187); conditions: read-out: Residual Activity (%)
T3 construct: purchased ProQinase
In short: as §1

[4] = target: T4, CDC7/DBF4 (Homo sapiens, UniProt O00311); conditions: CDC7/DBF4, 1 µM; read-out: Residual Activity (%)
T4 construct: purchased ProQinase
In short: as §1

[5] = target: T5, CK1-epsilon (Homo sapiens, UniProt P49674); conditions: read-out: Residual Activity (%)
T5 construct: purchased ProQinase
In short: as §1

[6] = target: T6, CK1-gamma1 (Homo sapiens, UniProt Q9HCP0); conditions: CK1-gamma1, 1 µM; read-out: Residual Activity (%)
T6 construct: purchased ProQinase
In short: as §1

[7] = target: T7, CLK3 (Homo sapiens, UniProt P49761); conditions: CLK3, 1 µM; read-out: Residual Activity (%)
T7 construct: purchased ProQinase
In short: as §1

[8] = target: T8, DYRK1A (Homo sapiens, UniProt Q13627); conditions: read-out: Residual Activity (%)
T8 construct: purchased ProQinase
In short: as §1

[9] = target: T9, DYRK3 (Homo sapiens, UniProt O43781); conditions: DYRK3, 1 µM; read-out: Residual Activity (%)
T9 construct: purchased ProQinase
In short: as §1

[10] = target: T10, EGF-R (Homo sapiens, UniProt P00533); conditions: read-out: Residual Activity (%)
T10 construct: purchased ProQinase
In short: as §1

[11] = target: T11, EPHB4 (Homo sapiens, UniProt P54760); conditions: EPHB4, 1 µM; read-out: Residual Activity (%)
T11 construct: purchased ProQinase
In short: as §1

[12] = target: T12, FYN (Homo sapiens, UniProt P06241); conditions: read-out: Residual Activity (%)
T12 construct: purchased ProQinase
In short: as §1

[13] = target: T13, GSG2 (Homo sapiens, UniProt Q8TF76); conditions: GSG2, 1 µM; read-out: Residual Activity (%)
T13 construct: purchased ProQinase
In short: as §1

[14] = target: T14, IKK-epsilon (Homo sapiens, UniProt Q14164); conditions: read-out: Residual Activity (%)
T14 construct: purchased ProQinase
In short: as §1

[15] = target: T15, JAK3 (Homo sapiens, UniProt P52333); conditions: JAK3, 1 µM; read-out: Residual Activity (%)
T15 construct: purchased ProQinase
In short: as §1

[16] = target: T16, MAPKAPK5 (Homo sapiens, UniProt Q8IW41); conditions: MAPKAPK5, 1 µM; read-out: Residual Activity (%)
T16 construct: purchased ProQinase
In short: as §1

[17] = target: T17, MATK (Homo sapiens, UniProt P42679); conditions: read-out: Residual Activity (%)
T17 construct: purchased ProQinase
In short: as §1

[18] = target: T18, MEK5 (Homo sapiens, UniProt Q13163); conditions: MEK5, 1 µM; read-out: Residual Activity (%)
T18 construct: purchased ProQinase
In short: as §1

[19] = target: T19, MLK4 (Homo sapiens, UniProt Q5TCX8); conditions: MLK4, 1 µM; read-out: Residual Activity (%)
T19 construct: purchased ProQinase
In short: as §1

[20] = target: T20, MST3 (Homo sapiens, UniProt Q9Y6E0); conditions: MST3, 1 µM; read-out: Residual Activity (%)
T20 construct: purchased ProQinase
In short: as §1

[21] = target: T21, NEK1 (Homo sapiens, UniProt Q96PY6); conditions: NEK1, 1 µM; read-out: Residual Activity (%)
T21 construct: purchased ProQinase
In short: as §1

[22] = target: T22, PBK (Homo sapiens, UniProt Q96KB5); conditions: read-out: Residual Activity (%)
T22 construct: purchased ProQinase
In short: as §1

[23] = target: T23, PKC-gamma (Homo sapiens, UniProt P05129); conditions: read-out: Residual Activity (%)
T23 construct: purchased ProQinase
In short: as §1

[24] = target: T24, PRKD2 (Homo sapiens, UniProt Q9BZL6); conditions: PRKD2, 1 µM; read-out: Residual Activity (%)
T24 construct: purchased ProQinase
In short: as §1

[25] = target: T25, RPS6KA5 (Homo sapiens, UniProt O75582); conditions: RPS6KA5, 1 µM; read-out: Residual Activity (%)
T25 construct: purchased ProQinase
In short: as §1

[26] = target: T26, TXK (Homo sapiens, UniProt P42681); conditions: read-out: Residual Activity (%)
T26 construct: purchased ProQinase
In short: as §1

[27] = target: T27, TYRO3 (Homo sapiens, UniProt Q06418); conditions: TYRO3, 1 µM; read-out: Residual Activity (%)
T27 construct: purchased ProQinase
In short: as §1

[28] = target: T28, VEGF-R1 (Homo sapiens, UniProt P17948); conditions: VEGF-R1, 1 µM; read-out: Residual Activity (%)
T28 construct: purchased ProQinase
In short: as §1

[29] = target: T29, ZAP70 (Homo sapiens, UniProt P43403); conditions: ZAP70, 1 µM; read-out: Residual Activity (%)
T29 construct: purchased ProQinase
In short: as §1

T18 sequence (Q13163 whole entry): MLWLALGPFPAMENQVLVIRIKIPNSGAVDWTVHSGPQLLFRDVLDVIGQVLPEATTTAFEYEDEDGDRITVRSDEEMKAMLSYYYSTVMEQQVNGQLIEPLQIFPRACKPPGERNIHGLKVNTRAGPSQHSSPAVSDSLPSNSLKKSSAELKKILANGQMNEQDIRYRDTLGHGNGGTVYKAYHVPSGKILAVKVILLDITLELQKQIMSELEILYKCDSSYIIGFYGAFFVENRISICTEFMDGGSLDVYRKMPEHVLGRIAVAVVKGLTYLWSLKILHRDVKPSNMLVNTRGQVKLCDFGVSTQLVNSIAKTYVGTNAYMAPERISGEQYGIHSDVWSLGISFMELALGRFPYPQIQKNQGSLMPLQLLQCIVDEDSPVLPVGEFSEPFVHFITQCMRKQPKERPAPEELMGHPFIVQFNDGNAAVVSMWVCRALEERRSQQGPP
T14 sequence (Q14164 whole entry): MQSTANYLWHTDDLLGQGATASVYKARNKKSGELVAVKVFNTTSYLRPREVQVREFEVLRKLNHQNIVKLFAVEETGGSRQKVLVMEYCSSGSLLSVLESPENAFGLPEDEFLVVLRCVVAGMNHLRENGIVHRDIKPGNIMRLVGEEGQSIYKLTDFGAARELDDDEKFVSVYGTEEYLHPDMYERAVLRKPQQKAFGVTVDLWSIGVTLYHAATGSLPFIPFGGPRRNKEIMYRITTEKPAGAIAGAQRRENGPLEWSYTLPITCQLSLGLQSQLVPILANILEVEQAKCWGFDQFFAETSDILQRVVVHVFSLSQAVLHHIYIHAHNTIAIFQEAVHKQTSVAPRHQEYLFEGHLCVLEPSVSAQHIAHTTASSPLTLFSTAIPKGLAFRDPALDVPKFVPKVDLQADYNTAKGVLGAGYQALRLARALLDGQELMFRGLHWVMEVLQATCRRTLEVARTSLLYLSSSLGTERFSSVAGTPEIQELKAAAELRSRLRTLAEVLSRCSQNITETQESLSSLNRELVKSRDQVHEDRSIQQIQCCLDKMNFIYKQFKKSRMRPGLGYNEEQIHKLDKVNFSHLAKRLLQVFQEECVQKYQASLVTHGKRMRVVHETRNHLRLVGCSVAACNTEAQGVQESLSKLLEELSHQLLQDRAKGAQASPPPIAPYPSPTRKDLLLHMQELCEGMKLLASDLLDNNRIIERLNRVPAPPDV
T10 sequence (P00533 25-1210): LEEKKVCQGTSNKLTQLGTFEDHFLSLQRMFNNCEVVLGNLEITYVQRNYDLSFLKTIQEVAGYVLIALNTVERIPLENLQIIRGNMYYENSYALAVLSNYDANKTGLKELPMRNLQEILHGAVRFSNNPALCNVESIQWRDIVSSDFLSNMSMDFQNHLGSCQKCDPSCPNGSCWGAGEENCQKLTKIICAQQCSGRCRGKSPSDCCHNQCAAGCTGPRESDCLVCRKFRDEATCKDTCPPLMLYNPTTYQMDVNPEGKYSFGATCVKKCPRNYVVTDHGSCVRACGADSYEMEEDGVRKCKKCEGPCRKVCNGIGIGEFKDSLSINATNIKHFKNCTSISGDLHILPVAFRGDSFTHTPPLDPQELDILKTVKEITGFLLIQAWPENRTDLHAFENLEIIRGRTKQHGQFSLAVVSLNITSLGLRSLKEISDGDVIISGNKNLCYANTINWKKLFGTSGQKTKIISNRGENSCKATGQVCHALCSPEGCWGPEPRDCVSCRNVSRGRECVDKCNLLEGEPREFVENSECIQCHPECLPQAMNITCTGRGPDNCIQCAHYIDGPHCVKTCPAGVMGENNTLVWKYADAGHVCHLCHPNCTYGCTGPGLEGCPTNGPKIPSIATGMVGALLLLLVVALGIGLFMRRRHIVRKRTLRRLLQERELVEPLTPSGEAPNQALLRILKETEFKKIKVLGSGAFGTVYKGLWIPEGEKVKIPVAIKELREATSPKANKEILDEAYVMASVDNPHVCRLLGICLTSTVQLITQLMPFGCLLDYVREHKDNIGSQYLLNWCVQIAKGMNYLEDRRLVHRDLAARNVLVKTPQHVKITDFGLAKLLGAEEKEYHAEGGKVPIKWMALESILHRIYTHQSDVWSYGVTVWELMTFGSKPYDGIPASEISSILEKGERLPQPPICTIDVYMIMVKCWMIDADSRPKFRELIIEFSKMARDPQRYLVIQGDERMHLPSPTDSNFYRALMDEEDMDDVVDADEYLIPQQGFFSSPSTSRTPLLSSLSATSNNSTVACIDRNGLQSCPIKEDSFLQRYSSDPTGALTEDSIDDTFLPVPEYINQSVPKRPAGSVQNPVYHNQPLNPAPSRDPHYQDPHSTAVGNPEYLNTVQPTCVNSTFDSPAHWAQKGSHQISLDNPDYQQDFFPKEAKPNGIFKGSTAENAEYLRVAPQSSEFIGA
T16 sequence (Q8IW41 whole entry): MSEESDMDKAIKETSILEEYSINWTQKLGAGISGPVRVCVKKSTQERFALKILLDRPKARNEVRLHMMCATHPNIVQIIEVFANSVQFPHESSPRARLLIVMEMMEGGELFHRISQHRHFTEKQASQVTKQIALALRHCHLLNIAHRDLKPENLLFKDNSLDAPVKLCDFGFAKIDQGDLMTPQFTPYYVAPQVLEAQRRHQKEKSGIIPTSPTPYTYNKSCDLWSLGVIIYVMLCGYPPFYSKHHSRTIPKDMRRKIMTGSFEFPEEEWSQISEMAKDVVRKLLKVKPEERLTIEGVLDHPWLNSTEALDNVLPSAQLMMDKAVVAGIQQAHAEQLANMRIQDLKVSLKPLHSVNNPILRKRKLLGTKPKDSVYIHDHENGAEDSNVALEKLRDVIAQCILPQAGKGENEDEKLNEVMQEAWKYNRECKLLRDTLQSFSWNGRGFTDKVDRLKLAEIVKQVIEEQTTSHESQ
T22 sequence (Q96KB5 whole entry): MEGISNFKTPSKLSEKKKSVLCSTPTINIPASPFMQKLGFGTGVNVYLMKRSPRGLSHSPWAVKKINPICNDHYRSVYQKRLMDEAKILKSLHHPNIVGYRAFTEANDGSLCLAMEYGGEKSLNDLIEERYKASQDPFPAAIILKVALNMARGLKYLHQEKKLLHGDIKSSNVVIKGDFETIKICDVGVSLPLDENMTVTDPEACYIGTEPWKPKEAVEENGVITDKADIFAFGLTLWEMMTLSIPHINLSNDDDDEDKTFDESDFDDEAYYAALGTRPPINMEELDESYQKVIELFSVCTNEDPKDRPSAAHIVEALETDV
T13 sequence (Q8TF76 whole entry): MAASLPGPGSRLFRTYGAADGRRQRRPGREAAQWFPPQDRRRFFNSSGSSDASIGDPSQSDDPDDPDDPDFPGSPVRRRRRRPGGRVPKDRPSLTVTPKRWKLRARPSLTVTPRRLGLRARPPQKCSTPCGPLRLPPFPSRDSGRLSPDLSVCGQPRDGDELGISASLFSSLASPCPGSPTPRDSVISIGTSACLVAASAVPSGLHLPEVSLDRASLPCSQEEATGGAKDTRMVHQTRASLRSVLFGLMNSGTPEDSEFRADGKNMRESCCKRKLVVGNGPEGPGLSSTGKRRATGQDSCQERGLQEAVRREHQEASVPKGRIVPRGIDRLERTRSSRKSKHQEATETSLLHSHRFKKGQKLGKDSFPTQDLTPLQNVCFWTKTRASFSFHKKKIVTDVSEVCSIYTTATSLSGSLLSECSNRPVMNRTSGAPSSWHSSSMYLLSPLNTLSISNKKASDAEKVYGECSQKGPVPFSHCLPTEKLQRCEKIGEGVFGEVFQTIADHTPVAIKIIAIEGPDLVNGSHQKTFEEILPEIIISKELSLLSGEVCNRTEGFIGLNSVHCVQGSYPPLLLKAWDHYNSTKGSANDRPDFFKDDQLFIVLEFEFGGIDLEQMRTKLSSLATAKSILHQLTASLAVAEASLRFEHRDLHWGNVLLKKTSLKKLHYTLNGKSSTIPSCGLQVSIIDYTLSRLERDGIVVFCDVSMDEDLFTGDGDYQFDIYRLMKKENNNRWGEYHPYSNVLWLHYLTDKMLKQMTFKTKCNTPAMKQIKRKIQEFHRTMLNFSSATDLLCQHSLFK
T1 sequence (P31749 106-480 limits assumed): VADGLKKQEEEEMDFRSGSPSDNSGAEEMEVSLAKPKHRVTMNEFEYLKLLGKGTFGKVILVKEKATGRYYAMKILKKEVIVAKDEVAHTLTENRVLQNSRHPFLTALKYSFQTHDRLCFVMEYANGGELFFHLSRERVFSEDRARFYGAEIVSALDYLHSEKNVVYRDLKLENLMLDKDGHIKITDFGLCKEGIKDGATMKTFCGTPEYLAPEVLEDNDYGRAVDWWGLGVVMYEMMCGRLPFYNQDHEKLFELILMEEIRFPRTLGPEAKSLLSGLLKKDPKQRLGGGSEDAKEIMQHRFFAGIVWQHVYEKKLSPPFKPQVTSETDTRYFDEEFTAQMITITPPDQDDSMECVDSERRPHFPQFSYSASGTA
T29 sequence (P43403 whole entry): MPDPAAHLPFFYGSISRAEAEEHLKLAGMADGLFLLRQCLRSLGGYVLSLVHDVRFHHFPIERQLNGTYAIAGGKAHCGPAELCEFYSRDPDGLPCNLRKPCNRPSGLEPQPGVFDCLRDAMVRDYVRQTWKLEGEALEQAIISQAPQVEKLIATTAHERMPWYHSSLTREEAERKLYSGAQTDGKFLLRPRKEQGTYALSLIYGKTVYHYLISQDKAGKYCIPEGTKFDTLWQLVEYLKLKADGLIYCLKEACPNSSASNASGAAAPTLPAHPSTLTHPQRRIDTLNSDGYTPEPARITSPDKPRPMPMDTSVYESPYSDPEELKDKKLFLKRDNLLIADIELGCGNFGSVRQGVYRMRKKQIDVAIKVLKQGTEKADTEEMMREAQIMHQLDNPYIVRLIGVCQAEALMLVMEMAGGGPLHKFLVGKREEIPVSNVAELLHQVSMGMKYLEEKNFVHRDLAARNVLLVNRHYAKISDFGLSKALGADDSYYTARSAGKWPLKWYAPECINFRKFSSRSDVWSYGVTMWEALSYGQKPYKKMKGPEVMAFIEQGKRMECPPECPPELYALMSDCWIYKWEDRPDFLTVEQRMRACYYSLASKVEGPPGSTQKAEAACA

## COc1ccc(-c2cc(C(=O)Nc3cc(-c4c(-c5ccc(F)cc5)noc4C(C)C)ccn3)n(CC3NCC(O)C3O)c2)cc1 (centres unmarked) [29d]
[1]
  remaining activity at 1 µM: 84%
[2]
  remaining activity at 1 µM: 95%
[3]
  remaining activity at 1 µM: 112%
[4]
  remaining activity at 1 µM: 94%
[5]
  remaining activity at 1 µM: 4%
[6]
  remaining activity at 1 µM: 88%
[7]
  remaining activity at 1 µM: 92%
[8]
  remaining activity at 1 µM: 120%
[9]
  remaining activity at 1 µM: 106%
[10]
  remaining activity at 1 µM: 108%
[11]
  remaining activity at 1 µM: 118%
[12]
  remaining activity at 1 µM: 156%
[13]
  remaining activity at 1 µM: 91%
[14]
  remaining activity at 1 µM: 94%
[15]
  remaining activity at 1 µM: 81%
[16]
  remaining activity at 1 µM: 110%
[17]
  remaining activity at 1 µM: 167%
[18]
  remaining activity at 1 µM: 110%
[19]
  remaining activity at 1 µM: 112%
[20]
  remaining activity at 1 µM: 117%
[21]
  remaining activity at 1 µM: 101%
[22]
  remaining activity at 1 µM: 89%
[23]
  remaining activity at 1 µM: 112%
[24]
  remaining activity at 1 µM: 110%
[25]
  remaining activity at 1 µM: 101%
[26]
  remaining activity at 1 µM: 119%
[27]
  remaining activity at 1 µM: 115%
[28]
  remaining activity at 1 µM: 119%
[29]
  remaining activity at 1 µM: 116%
